Test results taken from article PMC3833056 (The Journal of organic chemistry, 2010).

Legend:
[1] = system: mycobacterial α-(1,6)-mannosyltransferases; experiment: In vitro PPM-dependent α-; assay type: biochemical, Mycobacterium smegmatis; conditions: inhibitor 1.0 mM; acceptor 0.2 mM; several independent experiments
[2] = system: α-(1,6)-ManTs; experiment: Mannosyl acceptor; assay type: biochemical, Mycobacterium smegmatis; conditions: up to 4 mM

Compound	inhibition of α-(1,6)-mannosyltransferase activity [1]	mannosyl acceptor activity [2]
C[C@H]1O[C@H](c2cn(C[C@H]3O[C@@H](c4cn(C[C@H]5O[C@@H](c6cn(C[C@H]7O[C@@H](c8cn(C[C@H]9O[C@@H](c%10cn(C[C@H]%11O[C@@H](c%12cn(C[C@H]%13O[C@H](c%14cn(C[C@H]%15O[C@H](CCO)[C@@H](O)[C@@H](O)[C@@H]%15O)nn%14)[C@@H](O)[C@@H](O)[C@@H]%13O)nn%12)[C@@H](O)[C@@H](O)[C@@H]%11O)nn%10)[C@@H](O)[C@@H](O)[C@@H]9O)nn8)[C@@H](O)[C@@H](O)[C@@H]7O)nn6)[C@@H](O)[C@@H](O)[C@@H]5O)nn4)[C@@H](O)[C@@H](O)[C@@H]3O)nn2)[C@@H](O)[C@@H](O)[C@@H]1O [TOM-8]	ca. 95%	–
C[C@H]1O[C@H](c2cn(C[C@H]3O[C@@H](c4cn(C[C@H]5O[C@@H](c6cn(C[C@H]7O[C@@H](c8cn(C[C@H]9O[C@H](c%10cn(C[C@H]%11O[C@H](CCO)[C@@H](O)[C@@H](O)[C@@H]%11O)nn%10)[C@@H](O)[C@@H](O)[C@@H]9O)nn8)[C@@H](O)[C@@H](O)[C@@H]7O)nn6)[C@@H](O)[C@@H](O)[C@@H]5O)nn4)[C@@H](O)[C@@H](O)[C@@H]3O)nn2)[C@@H](O)[C@@H](O)[C@@H]1O [TOM-6]	ca. 95%	–
OCC[C@H]1O[C@H](Cn2cc([C@H]3O[C@H](CO)[C@@H](O)[C@H](O)[C@@H]3O)nn2)[C@@H](O)[C@H](O)[C@@H]1O [compound 31, 3,7-Anhydro-2,8-dideoxy-8-[4-(α-D-mannopyranosyl)-1H-1,2,3-triazol-1-yl]-D-glycero-D-talo-octitol]	–	poor mannosyl acceptor
